Laboratory results: US7943770B2, “Fused quinoline derivative and use thereof” (Takeda Pharmaceutical Company Limited, priority 2004, dated 2011)

Each compound was assayed against T1, hNK2 receptor (Homo sapiens, UniProt P21452) (assay: Radio-ligand ([125I]-NKA) receptor binding inhibitory activity using membrane fraction of hNK2 receptor-expressing CHO cell). Details: membrane fraction of hNK2 receptor-expressing CHO cells, 25° C., 30 min.
T1 construct: host or cells: CHO cells
T1 sequence (P21452 1-398): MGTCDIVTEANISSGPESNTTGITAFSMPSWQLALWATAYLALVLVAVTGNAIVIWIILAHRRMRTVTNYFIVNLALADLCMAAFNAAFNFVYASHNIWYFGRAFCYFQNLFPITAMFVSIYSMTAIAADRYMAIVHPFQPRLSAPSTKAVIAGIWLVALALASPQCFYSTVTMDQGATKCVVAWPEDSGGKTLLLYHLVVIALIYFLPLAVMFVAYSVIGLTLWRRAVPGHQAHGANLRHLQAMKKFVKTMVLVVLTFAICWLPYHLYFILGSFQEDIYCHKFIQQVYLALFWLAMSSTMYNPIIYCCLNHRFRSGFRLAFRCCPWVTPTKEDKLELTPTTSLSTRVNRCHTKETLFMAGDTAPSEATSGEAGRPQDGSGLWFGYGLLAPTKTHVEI
Outline: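 Membranes from hNK2-expressing CHO cells (20 μg/mL suspension) incubated with test compound and [125I]-NKA ([…] solution as added) in Tris-HCl pH 7.4 with BSA, protease inhibitors, 3 mM MnCl2, 25 °C, 30 min. Bound radioactivity by GF/C filtration and scintillation; inhibition expressed relative to specific binding (total minus unlabeled-NKA non-specific).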

Row | IC50 [nM] | Structure (SMILES)
1 | < 1 | COC[C@@H]1Nc2ccccc2[C@H]2[C@@H]1CCN2C(=O)[C@H]1CCCC[C@H]1NC(=O)c1ccc(N2N=C(C)CC2=O)cc1 [Example 252, N-((1R,2S)-2-{[(3aR,4R,9bR)-4-(Methoxymethyl)-2,3,3a,4,5,9b-hexahydro-1H-pyrrolo[3,2-c]quinolin-1-yl]carbonyl}cyclohexyl)-4-(3-methyl-5-oxo-4,5-dihydro-1H-pyrazol-1-yl)benzamide]
2 | < 10 | COC[C@@H]1Nc2ccccc2[C@H]2[C@@H]1CCN2C(=O)[C@H]1CCCC[C@H]1NC(=O)c1ccc2ncsc2c1 [Example 253, N-((1R,2S)-2-{[(3aR,4R,9bR)-4-(Methoxymethyl)-2,3,3a,4,5,9b-hexahydro-1H-pyrrolo[3,2-c]quinolin-1-yl]carbonyl}cyclohexyl)-1,3-benzothiazole-6-carboxamide]
3 | < 1 | COC[C@@H]1Nc2ccccc2[C@H]2[C@@H]1CCN2C(=O)[C@H]1CCCC[C@H]1NC(=O)c1ccc(N2CCCCC2)nc1 [Example 254, N-((1R,2S)-2-{[(3aR,4R,9bR)-4-(Methoxymethyl)-2,3,3a,4,5,9b-hexahydro-1H-pyrrolo[3,2-c]quinolin-1-yl]carbonyl}cyclohexyl)-6-piperidin-1-ylnicotinamide]
4 | < 1 | COC[C@@H]1Nc2ccccc2[C@H]2[C@@H]1CCN2C(=O)[C@H]1CCCC[C@H]1NC(=O)c1ccc(C#N)c(C)c1 [Example 256, 4-Cyano-N-((1R,2S)-2-{[(3aR,4R,9bR)-4-(methoxymethyl)-2,3,3a,4,5,9b-hexahydro-1H-pyrrolo[3,2-c]quinolin-1-yl]carbonyl}cyclohexyl)-3-methylbenzamide]
5 | < 1 | COC[C@@H]1Nc2ccccc2[C@H]2[C@@H]1CCN2C(=O)[C@H]1CCCC[C@H]1NC(=O)c1ccc(-n2cccc2)cc1 [Example 258, N-((1R,2S)-2-{[(3aR,4R,9bR)-4-(Methoxymethyl)-2,3,3a,4,5,9b-hexahydro-1H-pyrrolo[3,2-c]quinolin-1-yl]carbonyl}cyclohexyl)-4-(1H-pyrrol-1-yl)benzamide]
6 | < 10 | COC[C@@H]1Nc2ccccc2[C@H]2[C@@H]1CCN2C(=O)[C@H]1CCCC[C@H]1NC(=O)c1ccc2[nH]cnc2c1 [Example 259, N-((1R,2S)-2-{[(3aR,4R,9bR)-4-(Methoxymethyl)-2,3,3a,4,5,9b-hexahydro-1H-pyrrolo[3,2-c]quinolin-1-yl]carbonyl}cyclohexyl)-1H-benzimidazole-5-carboxamide]
7 | < 1 | COC[C@@H]1Nc2ccccc2[C@H]2[C@@H]1CCN2C(=O)[C@H]1CCCC[C@H]1NC(=O)c1ccc(-c2csc(C)n2)cc1 [Example 261, N-((1R,2S)-2-{[(3aR,4R,9bR)-4-(Methoxymethyl)-2,3,3a,4,5,9b-hexahydro-1H-pyrrolo[3,2-c]quinolin-1-yl]carbonyl}cyclohexyl)-4-(2-methyl-1,3-thiazol-4-yl)benzamide]
8 | < 10 | COC[C@@H]1Nc2ccccc2[C@H]2[C@@H]1CCN2C(=O)[C@H]1CCCC[C@H]1NC(=O)c1ccc(CNC(C)=O)cc1 [Example 263, 4-[(Acetylamino)methyl]-N-((1R,2S)-2-{[(3aR,4R,9bR)-4-(methoxymethyl)-2,3,3a,4,5,9b-hexahydro-1H-pyrrolo[3,2-c]quinolin-1-yl]carbonyl}cyclohexyl)benzamide]
9 | < 1 | COC[C@@H]1Nc2ccccc2[C@H]2[C@@H]1CCN2C(=O)[C@H]1CCCC[C@H]1NC(=O)c1ccc(-n2cccn2)cc1 [Example 264, N-((1R,2S)-2-{[(3aR,4R,9bR)-4-(Methoxymethyl)-2,3,3a,4,5,9b-hexahydro-1H-pyrrolo[3,2-c]quinolin-1-yl]carbonyl}cyclohexyl)-4-(1H-pyrazol-1-yl)benzamide]
10 | < 1 | COC[C@@H]1Nc2ccccc2[C@H]2[C@@H]1CCN2C(=O)[C@H]1CCCC[C@H]1NC(=O)c1ccc(-n2cncn2)cc1 [Example 265, N-((1R,2S)-2-{[(3aR,4R,9bR)-4-(Methoxymethyl)-2,3,3a,4,5,9b-hexahydro-1H-pyrrolo[3,2-c]quinolin-1-yl]carbonyl}cyclohexyl)-4-(1H-1,2,4-triazol-1-yl)benzamide]
11 | < 10 | COC[C@@H]1Nc2ccccc2[C@H]2[C@@H]1CCN2C(=O)[C@H]1CCCC[C@H]1NC(=O)c1ccc(NCCO)cc1 [Example 266, 4-[(2-Hydroxyethyl)amino]-N-((1R,2S)-2-{[(3aR,4R,9bR)-4-(methoxymethyl)-2,3,3a,4,5,9b-hexahydro-1H-pyrrolo[3,2-c]quinolin-1-yl]carbonyl}cyclohexyl)benzamide]
12 | < 10 | COC[C@@H]1Nc2ccccc2[C@H]2[C@@H]1CCN2C(=O)[C@H]1CCCC[C@H]1NC(=O)c1ccc(N2CCN(C)CC2)cc1 [Example 267, N-((1R,2S)-2-{[(3aR,4R,9bR)-4-(Methoxymethyl)-2,3,3a,4,5,9b-hexahydro-1H-pyrrolo[3,2-c]quinolin-1-yl]carbonyl}cyclohexyl)-4-(4-methylpiperazin-1-yl)benzamide]
13 | < 10 | COC[C@@H]1Nc2ccccc2[C@H]2[C@@H]1CCN2C(=O)[C@H]1CCCC[C@H]1NC(=O)c1ccc(N2CCOCC2)cc1 [Example 268, N-((1R,2S)-2-{[(3aR,4R,9bR)-4-(Methoxymethyl)-2,3,3a,4,5,9b-hexahydro-1H-pyrrolo[3,2-c]quinolin-1-yl]carbonyl}cyclohexyl)-4-morpholin-4-benzamide]
14 | < 1 | COC[C@@H]1Nc2ccccc2[C@H]2[C@@H]1CCN2C(=O)[C@H]1CCCC[C@H]1NC(=O)c1ccc2c(c1)OCCN2C [Example 269, N-((1R,2S)-2-{[(3aR,4R,9bR)-4-(Methoxymethyl)-2,3,3a,4,5,9b-hexahydro-1H-pyrrolo[3,2-c]quinolin-1-yl]carbonyl}cyclohexyl)-4-methyl-3,4-dihydro-2H-1,4-benzoxazin-7-carboxamide]
15 | < 10 | COC[C@@H]1Nc2ccccc2[C@H]2[C@@H]1CCN2C(=O)[C@H]1CCCC[C@H]1NC(=O)c1ccc(N(C)CCO)cc1 [Example 270, 4-[(2-Hydroxyethyl) (methyl)amino]-N-((1R,2S)-2-{[(3aR,4R,9bR)-4-(methoxymethyl)-2,3,3a,4,5,9b-hexahydro-1H-pyrrolo[3,2-c]quinolin-1-yl]carbonyl}cyclohexyl)benzamide]
16 | < 10 | COC[C@@H]1Nc2ccccc2[C@H]2[C@@H]1CCN2C(=O)[C@H]1CCCC[C@H]1NC(=O)c1ccc(-n2ccnc2C)cc1 [Example 271, N-((1R,2S)-2-{[(3aR,4R,9bR)-4-(Methoxymethyl)-2,3,3a,4,5,9b-hexahydro-1H-pyrrolo[3,2-c]quinolin-1-yl]carbonyl}cyclohexyl)-4-(2-methyl-1H-imidazol-1-yl)benzamide]
17 | < 1 | COC[C@@H]1Nc2ccccc2[C@H]2[C@@H]1CCN2C(=O)[C@H]1CCCC[C@H]1NC(=O)c1ccc(-n2cnc(C)c2)cc1 [Example 272, N-((1R,2S)-2-{[(3aR,4R,9bR)-4-(Methoxymethyl)-2,3,3a,4,5,9b-hexahydro-1H-pyrrolo[3,2-c]quinolin-1-yl]carbonyl}cyclohexyl)-4-(4-methyl-1H-imidazol-1-yl)benzamide]
18 | < 1 | COCCN(C)c1ccc(C(=O)N[C@@H]2CCCC[C@@H]2C(=O)N2CC[C@@H]3[C@H](COC)Nc4ccccc4[C@@H]32)cc1 [Example 273, 4-[(2-Methoxyethyl)(methyl)amino]-N-((1R,2S)-2-{[(3aR,4R,9bR)-4-(methoxymethyl)-2,3,3a,4,5,9b-hexahydro-1H-pyrrolo[3,2-c]quinolin-1-yl]carbonyl}cyclohexyl)benzamide]
19 | < 10 | COC[C@@H]1Nc2ccccc2[C@H]2[C@@H]1CCN2C(=O)[C@H]1CCCC[C@H]1NC(=O)c1ccc(C#N)c(OC)c1 [Example 274, 4-Cyano-3-methoxy-N-((1R,2S)-2-{[(3aR,4R,9bR)-4-(methoxymethyl)-2,3,3a,4,5,9b-hexahydro-1H-pyrrolo[3,2-c]quinolin-1-yl]carbonyl}cyclohexyl)benzamide]
20 | < 1 | COC[C@@H]1Nc2ccccc2[C@H]2[C@@H]1CCN2C(=O)[C@H]1CCCC[C@H]1NC(=O)c1ccc(OC)c(C#N)c1 [Example 275, 3-Cyano-4-methoxy-N-((1R,2S)-2-{[(3aR,4R,9bR)-4-(methoxymethyl)-2,3,3a,4,5,9b-hexahydro-1H-pyrrolo[3,2-c]quinolin-1-yl]carbonyl}cyclohexyl)benzamide]
21 | < 10 | COC[C@@H]1Nc2ccccc2[C@H]2[C@@H]1CCN2C(=O)[C@H]1CCCC[C@H]1NC(=O)c1ccc2c(c1)nc(C)n2C [Example 276, N-((1R,2S)-2-{[(3aR,4R,9bR)-4-(Methoxymethyl)-2,3,3a,4,5,9b-hexahydro-1H-pyrrolo[3,2-c]quinolin-1-yl]carbonyl}cyclohexyl)-1,2-dimethyl-1H-benzimidazole-5-carboxamide]
22 | < 1 | COC[C@@H]1Nc2ccccc2[C@H]2[C@@H]1CCN2C(=O)[C@H]1CCCC[C@H]1NC(=O)Nc1ccc(-n2ccnc2)cc1 [Example 277, N-[4-(1H-Imidazol-1-yl)phenyl]-N′-((1R,2S)-2-{[(3aR,4R,9bR)-4-(methoxymethyl)-2,3,3a,4,5,9b-hexahydro-1H-pyrrolo[3,2-c]quinolin-1-yl]carbonyl}cyclohexyl)urea]
23 | < 10 | COC[C@@H]1Nc2ccccc2[C@H]2[C@@H]1CCN2C(=O)[C@H]1CCCC[C@H]1NC(=O)c1ccc(S(C)(=O)=O)cc1 [Example 278, N-((1R,2S)-2-{[(3aR,4R,9bR)-4-(Methoxymethyl)-2,3,3a,4,5,9b-hexahydro-1H-pyrrolo[3,2-c]quinolin-1-yl]carbonyl}cyclohexyl)-4-(methylsulfonyl)benzamide]
